# Laboratory results published in patent US11357857B2, “Excipient compounds for protein processing” (COMERA LIFE SCIENCES, INC., priority 2014, dated 2022).
# “And” between values parts separate entries of the source, which are not always exact repeats. Equal entries are not always repeated. Structures can show the parent of a compound that is named as a salt. Where two headings read alike, the source gives them in different places.
# How the values were obtained:
# [1] = test system: bovine gamma globulin (BGG); assay: Normalized viscosity of 280 mg/mL BGG in 50 mM histidine HCl with primary/secondary excipient combinations (Example 10); type: physicochemical
# Method: The primary excipient compounds were selected from compounds having both anionic and aromatic functionality, as listed below in Table 5. The secondary excipient compounds were selected from compounds having either nonionic or cationic charge at pH 6 and either imidazoline or benzene rings, as listed below in Table 5. Formulations of these excipients were prepared in 50 mM histidine hydrochloride buffer solution for viscosity measurement in the following way. […] The individual primary or secondary excipient compounds were then dissolved in 50 mM histidine HCl.
# [2] = test system: bovine gamma globulin (BGG)
# Method: Each buffer solution contained different excipient or combination of excipients as described in the table below. The viscosity of the solutions was measured as described in previous examples.
# [3] = test system: bovine gamma globulin (BGG); assay: Viscosity of 280 mg/mL BGG in histidine buffer pH 6 versus amount of arginine or caffeine added (Example 24); type: physicochemical
# [4] = test system: bovine gamma globulin (BGG); assay: Viscosity of 280 mg/mL BGG in 20 mM histidine pH 6 with different molar caffeine concentrations, microVisc (Example 31); type: physicochemical
# Method: The formulations for this Example were prepared in 20 mM histidine buffer for viscosity measurement in the following way.
# The viscometer was equipped with an A-10 chip having a channel depth of 100 microns, and was operated at a shear rate of 250 l/s and 25° C. To measure viscosity, the test formulation was loaded into the viscometer, taking care to remove all air bubbles from the pipet. The pipet containing the loaded sample formulation was placed in the instrument and allowed to incubate at the measurement temperature for about five minutes. The instrument was then run until the channel was fully equilibrated with the test fluid, indicated by a stable viscosity reading, and then the viscosity recorded in centipoise.
# [5] = test system: bovine gamma globulin (BGG); conditions: 280 mg/mL BGG, 20 mM histidine pH 6, 25° C.; Excipient A caffeine 15 mg/mL; no Excipient B
# bevacizumab (AVASTIN®) = assay: Viscosity of concentrated AVASTIN with and without caffeine, microVisc (Example 40); conditions: for % Viscosity Reduction from Excipient: 10 mg/mL caffeine
# Method: The sample was concentrated in Amicon Ultra 4 centrifugal concentrator tubes (MWCO 30 kDa) at 3500 rpm. […] AVASTIN® stock solution was diluted with the excipient buffer then concentrated in Amicon Ultra 15 centrifugal concentrator tubes (MWCO 30 kDa). The concentration of the excipient samples was determined by Bradford assay and the viscosity was measured using the RheoSense microVisc.
# [6] = test system: bovine gamma globulin (BGG); assay: Normalized viscosity of 280 mg/mL BGG in distilled water with excipient combinations (Example 11); type: physicochemical; conditions: primary excipient 20 mg/mL, no secondary
# Method: The primary excipient compounds were selected from compounds having both anionic and aromatic functionality, as listed below in Table 6. The secondary excipient compounds were selected from compounds having either nonionic or cationic charge at pH 6 and either imidazoline or benzene rings, as listed below in Table 6. Formulations of these excipients were prepared in distilled water for viscosity measurement in the following way. […].
# [7] = target: T1, PEGylated BSA (1 PEG chain per BSA molecule) (Bos taurus, UniProt P02769); assay: Viscosity of PEGylated BSA with 1 PEG chain per BSA with excipient, microVisc (Example 17); type: physicochemical
# T1 construct: purchased Aldrich A7906
# Method: To a beaker was added 200 mL of a phosphate buffered saline (Aldrich Cat. #P4417) and 4 g of BSA (Aldrich Cat. #A7906) and mixed with a magnetic bar. Next 400 mg of methoxy polyethylene glycol maleimide, MW=5,000, (Aldrich Cat. #63187) was added. The reaction mixture was allowed to react overnight at room temperature. The following day, 20 drops of HCl 0.1 M were added to stop the reaction. […] The reaction mixture was placed in an Amicon centrifuge tube with a molecular weight cutoff (MWCO) of 30,000 and concentrated to a few milliliters. Next the sample was diluted 20 times with a histidine buffer, 50 mM at a pH of approximately 6, followed by concentrating until a high viscosity fluid was obtained.
# The viscometer measurements were completed at ambient temperature.
# PEGylated lysozyme = PEGylated lysozyme (Gallus gallus, UniProt P00698); conditions: excipient 20 mg/mL
# Method: The solution was mixed by gently shaking and the viscosity was measured by a RheoSense microVisc equipped with an A10 channel (100 micron depth) at a shear rate of 500 sec−1. The viscometer measurements were completed at ambient temperature.
# [8] = test system: bovine gamma globulin (BGG); assay: Normalized viscosity of 280 mg/mL BGG in 20 mM histidine with local anesthetic excipients (Example 21); type: physicochemical; conditions: no B
# Source text: The first excipient compound, Excipient A, was selected from a group of compounds having local anesthetic properties.
# [9] = Caffeine solubility testing with co-solutes at ambient temperature (Examples 32-33); conditions: for Observation of caffeine dissolution: caffeine 80 mg/mL
# Method: Prepared solutions were used either neat or diluted with deionized water.
# A small magnetic stir bar was added to the vial, and the solution was allowed to mix vigorously on a stir plate for about 10 minutes.
# [10] = test system: bovine gamma globulin (BGG); conditions: excipient 50 mg/mL
# [11] = excipient 10 mg/mL
# [12] = Viscosity of PEG (Mw ~1,000,000) solution in Tris buffer with excipient (Examples 12-13); type: physicochemical
# [13] = test system: bovine gamma globulin (BGG); assay: Normalized viscosity of 280 mg/mL BGG in 20 mM histidine with dimethyl sulfone (Example 42); type: physicochemical
# Method: Such formulations were prepared in 20 mM histidine buffer for viscosity measurement in the following way. […].
# [14] = primary excipient 30 mg/mL, no secondary
# T1 sequence (P02769 25-607): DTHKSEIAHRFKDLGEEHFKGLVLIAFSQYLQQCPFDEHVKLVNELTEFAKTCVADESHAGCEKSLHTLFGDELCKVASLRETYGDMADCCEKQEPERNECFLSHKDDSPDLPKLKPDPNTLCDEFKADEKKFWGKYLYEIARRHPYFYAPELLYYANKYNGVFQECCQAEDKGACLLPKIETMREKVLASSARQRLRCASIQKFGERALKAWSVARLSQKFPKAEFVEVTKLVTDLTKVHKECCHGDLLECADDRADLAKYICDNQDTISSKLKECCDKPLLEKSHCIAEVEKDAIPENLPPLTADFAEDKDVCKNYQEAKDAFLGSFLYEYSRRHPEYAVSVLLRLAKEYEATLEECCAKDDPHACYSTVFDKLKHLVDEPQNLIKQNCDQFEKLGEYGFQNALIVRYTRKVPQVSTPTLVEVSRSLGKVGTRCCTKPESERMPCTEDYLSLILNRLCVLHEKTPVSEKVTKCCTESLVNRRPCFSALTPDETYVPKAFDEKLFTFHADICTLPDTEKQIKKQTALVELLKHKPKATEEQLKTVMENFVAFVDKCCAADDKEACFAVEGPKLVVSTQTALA
# PEGylated lysozyme, sequence (P00698 19-147): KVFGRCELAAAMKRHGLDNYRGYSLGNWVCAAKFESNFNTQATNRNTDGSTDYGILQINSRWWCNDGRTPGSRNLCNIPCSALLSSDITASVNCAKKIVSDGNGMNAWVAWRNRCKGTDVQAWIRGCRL
compound,measurement,setting,value
Cn1c(=O)c2c(ncn2C)n(C)c1=O [Caffeine],Normalized Viscosity,"[1]; no primary, secondary excipient 10 mg/mL",0.73
same,Viscosity,[2]; caffeine 10 mg/ml,87.9 cP
same,Viscosity Reduction,[2]; caffeine 10 mg/ml,33%
same,Viscosity,[3]; caffeine added 10 mg/mL,60 cP
same,Viscosity Reduction,[3]; caffeine added 10 mg/mL,31%
same,Viscosity,[3]; caffeine added 15 mg/mL,62 cP
same,Viscosity Reduction,[3]; caffeine added 15 mg/mL,23%
same,Viscosity,[3]; caffeine added 22 mg/mL,50 cP
same,Viscosity Reduction,[3]; caffeine added 22 mg/mL,45%
same,Normalized Viscosity,[4]; caffeine 5 mM,0.81
same,Viscosity,[4]; caffeine 5 mM,67 cP
same,Normalized Viscosity,[4]; caffeine 10 mM,0.84
same,Viscosity,[4]; caffeine 10 mM,70 cP
same,Normalized Viscosity,[4]; caffeine 20 mM,0.92
same,Viscosity,[4]; caffeine 20 mM,77 cP
same,Normalized Viscosity,[4]; caffeine 30 mM,0.76
same,Viscosity,[4]; caffeine 30 mM,63 cP
same,Normalized Viscosity,[4]; caffeine 40 mM,0.78
same,Viscosity,[4]; caffeine 40 mM,65 cP
same,Normalized Viscosity,[4]; caffeine 50 mM,0.78
same,Viscosity,[4]; caffeine 50 mM,65 cP
same,Normalized Viscosity,[4]; caffeine 60 mM,0.69
same,Viscosity,[4]; caffeine 60 mM,57 cP
same,Normalized Viscosity,[4]; caffeine 70 mM,0.60
same,Viscosity,[4]; caffeine 70 mM,50 cP
same,Normalized Viscosity,[4]; caffeine 80 mM,0.60
same,Viscosity,[4]; caffeine 80 mM,50 cP
same,Normalized Viscosity,[5],0.77
same,Viscosity with 10 mg/mL added caffeine excipient,bevacizumab (AVASTIN®); concentration 190 mg/mL,13 cP
same,% Viscosity Reduction from Excipient,bevacizumab (AVASTIN®); concentration 190 mg/mL,36%
same,% Viscosity Reduction from Excipient,bevacizumab (AVASTIN®); concentration 266 mg/mL,62%
O=C(O)c1ccccc1O [Salicylic Acid],Normalized Viscosity,[1]; [14],0.79
same,Normalized Viscosity,[6],0.96
Alpha-Cyclodextrin sulfated Na salt,Viscosity,[7]; excipient 20 mg/mL,151.5 cP
same,Viscosity Reduction,[7]; excipient 20 mg/mL,34%
O=C(O)c1ccc(O)cc1 [4-hydroxybenzoic acid],Normalized Viscosity,[1]; [14],0.61
"CC(=O)[O-].[K+] [K acetate, potassium acetate]",Viscosity,[7]; excipient 40 mg/mL,89.5 cP
same,Viscosity Reduction,[7]; excipient 40 mg/mL,60%
same,Viscosity,PEGylated lysozyme,22.6 cP
same,Viscosity Reduction,PEGylated lysozyme,8%
CCN(CC)CCOC(=O)c1ccc(N)cc1 [Procaine HCl],Normalized Viscosity,[8]; excipient A 40 mg/mL,0.64
same,Observation of caffeine dissolution,[9]; co-solute 30 mg/mL,DND
same,Observation of caffeine dissolution,[9]; co-solute 40 mg/mL,DND
same,Dissolution of caffeine enabled relative to reported solubility limit,"[9]; co-solute in water, ambient temperature (about 23 C)",at least about four times
same,Viscosity Reduction,[10],47%
O=S(=O)([O-])[O-].[Na+].[Na+] [Sodium sulfate],Viscosity,[11],75.1 cP
same,Viscosity Reduction,[11],5.8%
c1c[nH]cn1 [Imidazole],Normalized Viscosity,"[1]; no primary, secondary excipient 5 mg/mL",0.75
"O=P([O-])([O-])[O-].[K+].[K+].[K+] [Potassium phosphate, potassium phosphate tribasic]",Viscosity,[11],72.3 cP
same,Viscosity Reduction,[11],9.3%
CCN(CC)CC(=O)Nc1c(C)cccc1C [Lidocaine],Normalized Viscosity,[8]; excipient A 23 mg/mL,0.74
same,Normalized Viscosity,[8]; excipient A 45 mg/mL,0.73
O=S(=O)(O)c1ccc(O)cc1 [4-hydroxybenzene sulfonic acid],Normalized Viscosity,"[1]; primary excipient 31 mg/mL, no secondary",0.59
N=C(N)NCCC[C@H](N)C(=O)O [Arginine],Viscosity,[2]; arginine 25 mg/ml,76.7 cP
same,Viscosity Reduction,[2]; arginine 25 mg/ml,41%
same,Viscosity,[3]; arginine added 53 mg/mL,40.9 cP
same,Viscosity Reduction,[3]; arginine added 53 mg/mL,48%
same,Viscosity,[3]; arginine added 79 mg/mL,46.1 cP
same,Viscosity Reduction,[3]; arginine added 79 mg/mL,42%
same,Viscosity,[3]; arginine added 105 mg/mL,47.8 cP
same,Viscosity Reduction,[3]; arginine added 105 mg/mL,40%
same,Viscosity,[3]; arginine added 132 mg/mL,49.0 cP
same,Viscosity Reduction,[3]; arginine added 132 mg/mL,38%
same,Viscosity,[3]; arginine added 158 mg/mL,48.0 cP
same,Viscosity Reduction,[3]; arginine added 158 mg/mL,39%
same,Viscosity,[3]; arginine added 174 mg/mL,50.3 cP
same,Viscosity Reduction,[3]; arginine added 174 mg/mL,36%
same,Viscosity,[3]; arginine added 211 mg/mL,51.4 cP
same,Viscosity Reduction,[3]; arginine added 211 mg/mL,35%
O=C(O)CC(O)(CC(=O)O)C(=O)O,Viscosity,[12]; excipient 20 mg/mL,73.3 cP
same,Viscosity Reduction,[12]; excipient 20 mg/mL,28%
same,Viscosity,[12]; excipient 40 mg/mL,56.8 cP
same,Viscosity Reduction,[12]; excipient 40 mg/mL,44%
same,Viscosity,[11],74.9 cP
same,Viscosity Reduction,[11],6.0%
CS(C)(=O)=O [Dimethyl sulfone],Normalized Viscosity,[13]; dimethyl sulfone 15 mg/mL,0.92
same,Normalized Viscosity,[13]; dimethyl sulfone 30 mg/mL,0.71 and 0.72
same,Normalized Viscosity,[13]; dimethyl sulfone 50 mg/mL,0.71
